# Measured values reported in paper PMC8218592 (Journal of medicinal chemistry, 2019).
# Legend:
# ERAP1 [1] = target: T1, ERAP1 (Homo sapiens, UniProt Q9NZ08); experiment: ERAP1 L-pNA hydrolysis mode of action kinetics; assay type: biochemical
# ERAP1 [2] = target: T1, ERAP1; experiment: ERAP1 WK10; assay type: biochemical; settings: Figure 3B
# IRAP = target: T2, IRAP (Mus musculus, UniProt Q8C129); experiment: IRAP L-AMC hydrolysis assay; assay type: biochemical
# T2 sequence (Q8C129 132-1025 limits assumed): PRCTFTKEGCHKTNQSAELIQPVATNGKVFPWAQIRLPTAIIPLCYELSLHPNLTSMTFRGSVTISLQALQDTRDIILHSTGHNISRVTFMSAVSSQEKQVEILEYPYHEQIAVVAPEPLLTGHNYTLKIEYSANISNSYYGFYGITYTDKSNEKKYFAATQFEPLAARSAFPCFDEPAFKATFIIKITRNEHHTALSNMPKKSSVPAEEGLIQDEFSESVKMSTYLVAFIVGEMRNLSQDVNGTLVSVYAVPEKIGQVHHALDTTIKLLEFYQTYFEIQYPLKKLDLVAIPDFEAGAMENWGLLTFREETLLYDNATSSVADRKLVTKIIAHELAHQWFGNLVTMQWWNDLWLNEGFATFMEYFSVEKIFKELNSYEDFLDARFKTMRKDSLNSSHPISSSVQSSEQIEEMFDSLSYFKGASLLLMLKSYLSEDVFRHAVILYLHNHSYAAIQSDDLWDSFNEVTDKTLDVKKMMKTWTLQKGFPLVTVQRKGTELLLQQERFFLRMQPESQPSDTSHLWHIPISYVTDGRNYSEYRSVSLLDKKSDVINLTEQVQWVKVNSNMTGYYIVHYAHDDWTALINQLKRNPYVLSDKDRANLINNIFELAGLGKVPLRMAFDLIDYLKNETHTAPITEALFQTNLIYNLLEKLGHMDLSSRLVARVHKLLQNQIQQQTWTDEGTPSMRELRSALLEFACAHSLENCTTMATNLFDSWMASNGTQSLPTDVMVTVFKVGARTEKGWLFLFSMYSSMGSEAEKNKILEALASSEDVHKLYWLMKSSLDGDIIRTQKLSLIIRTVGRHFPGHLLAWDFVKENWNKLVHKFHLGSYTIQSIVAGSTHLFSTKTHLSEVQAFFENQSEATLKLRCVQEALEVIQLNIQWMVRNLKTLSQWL
# ERAP1 [3] = target: T1, ERAP1; experiment: ERAP1 LF9 peptide hydrolysis coupled-enzyme assay, mode of action; assay type: biochemical; settings: LF9 peptide substrate
# ERAP1 K551A = experiment: L-AMC activation assay with mutant ERAP1 K551A; assay type: biochemical, human
# ERAP1 allele II = experiment: L-AMC hydrolysis assay with ERAP1 allelic variant allele II; assay type: biochemical, human; settings: disease-associated allele II (528K)
# ERAP1 [4] = target: T1, ERAP1; experiment: ERAP1 L-AMC hydrolysis assay; assay type: biochemical
# T1 sequence (Q9NZ08 22-941): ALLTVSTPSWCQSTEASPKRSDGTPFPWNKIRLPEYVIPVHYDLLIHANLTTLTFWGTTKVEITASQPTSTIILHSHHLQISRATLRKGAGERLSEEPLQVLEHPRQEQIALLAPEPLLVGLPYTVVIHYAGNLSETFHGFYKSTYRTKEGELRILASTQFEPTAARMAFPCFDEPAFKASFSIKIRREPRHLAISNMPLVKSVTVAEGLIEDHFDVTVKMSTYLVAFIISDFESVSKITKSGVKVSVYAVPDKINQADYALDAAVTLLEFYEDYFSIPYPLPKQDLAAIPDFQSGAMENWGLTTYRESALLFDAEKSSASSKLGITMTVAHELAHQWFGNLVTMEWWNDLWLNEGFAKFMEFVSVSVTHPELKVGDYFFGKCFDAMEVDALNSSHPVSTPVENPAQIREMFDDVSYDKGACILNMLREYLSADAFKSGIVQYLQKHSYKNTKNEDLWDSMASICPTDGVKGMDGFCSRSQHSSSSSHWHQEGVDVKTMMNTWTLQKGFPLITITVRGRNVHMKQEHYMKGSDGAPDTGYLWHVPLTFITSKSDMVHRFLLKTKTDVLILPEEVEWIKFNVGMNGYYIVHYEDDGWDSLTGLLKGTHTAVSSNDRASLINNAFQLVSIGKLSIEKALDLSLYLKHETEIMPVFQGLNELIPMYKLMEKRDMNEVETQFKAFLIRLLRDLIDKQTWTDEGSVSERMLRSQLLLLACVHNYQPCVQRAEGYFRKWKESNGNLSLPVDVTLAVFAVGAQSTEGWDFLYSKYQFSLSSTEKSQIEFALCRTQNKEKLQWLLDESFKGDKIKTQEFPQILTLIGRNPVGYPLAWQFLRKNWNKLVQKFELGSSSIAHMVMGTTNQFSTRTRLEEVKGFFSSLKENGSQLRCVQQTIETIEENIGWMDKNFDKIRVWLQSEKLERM
compound,measurement,setting,value
"N=C(NCCc1c[nH]c2ccccc12)NS(=O)(=O)c1cc(F)ccc1F [Compound 1, N-(N-(2-(1H-Indol-3-yl)ethyl)carbamimidoyl)-2,5-difluorobenzenesulfonamide]",mode of inhibition,ERAP1 [1]; L-pNA substrate,competitive
same,effect on WK10 peptide hydrolysis,ERAP1 [2],inhibited peptide hydrolysis in a dose-dependent manner
same,change in potency for mutant ERAP1 (L-AMC inhibition),ERAP1 T350A,small reduction in potency
"CC(=O)N1CCN(C(=O)C2(NC(=O)Nc3ccc(C)cc3)CCCCC2)CC1 [Compound 2, 1-(1-(4-Acetylpiperazine-1-carbonyl)cyclohexyl)-3-(p-tolyl)urea]",IC50,IRAP,> 200 µM
"COc1ccc(C(=O)O)cc1S(=O)(=O)Nc1cc(C(F)(F)F)ccc1N1CCCCC1 [Compound 3, 4-Methoxy-3-(N-(2-(piperidin-1-yl)-5-(trifluoromethyl)phenyl)sulfamoyl)benzoic acid]",increase of L-pNA hydrolysis activity (Vmax/Khalf),ERAP1 [1]; over the concentration range tested,up to 1.8 fold
same,effect on WK10 peptide hydrolysis,ERAP1 [2],inhibited peptide hydrolysis in a dose-dependent manner
same,IC50,IRAP,> 200 µM
same,effect on IRAP activity,IRAP; Figure 2C,no detectable effect
same,mode of inhibition,ERAP1 [3],competitive
same,effect of mutation on L-AMC AC50,ERAP1 K551A,substantial effect
same,L-AMC AC50 for ERAP1 allele II,ERAP1 allele II,sub-micromolar
"CC(=O)N1CCN(C(=O)C2(NC(=O)Nc3ccc(Cl)cc3)CCCCC2)CC1 [Compound 16, 1-(1-(4-Acetylpiperazine-1-carbonyl)cyclohexyl)-3-(4-chlorophenyl)urea]",IC50,IRAP,> 200 µM
"COc1ccc(NC(=O)NC2(C(=O)N3CCN(C(C)=O)CC3)CCCCC2)cc1 [Compound 17, 1-(1-(4-Acetylpiperazine-1-carbonyl)cyclohexyl)-3-(4-methoxyphenyl)urea]",IC50,IRAP,> 200 µM
"CC(=O)N1CCN(C(=O)C2(NC(=O)Nc3ccc(F)cc3)CCCCC2)CC1 [Compound 18, 1-(1-(4-Acetylpiperazine-1-carbonyl)cyclohexyl)-3-(4-fluorophenyl)urea]",IC50,IRAP,> 200 µM
"CC(=O)N1CCN(C(=O)C2(NC(=O)Nc3ccccc3)CCCCC2)CC1 [Compound 19, 1-(1-(4-Acetylpiperazine-1-carbonyl)cyclohexyl)-3-phenylurea]",IC50,IRAP,> 200 µM
"Cc1ccc(NC(=O)NC2(C(=O)N3CCOCC3)CCCCC2)cc1 [Compound 20, 1-(1-(Morpholine-4-carbonyl)cyclohexyl)-3-(p-tolyl)urea]",activity in ERAP1 L-AMC hydrolysis assay,ERAP1 [4],no detectable inhibitory activity
same,IC50,IRAP,> 200 µM
"Cc1ccc(NC(=O)NC2(C(=O)N3CCN(c4ccccc4)CC3)CCCCC2)cc1 [Compound 21, 1-(1-(4-Phenylpiperazine-1-carbonyl)cyclohexyl)-3-(p-tolyl)urea]",activity in ERAP1 L-AMC hydrolysis assay,ERAP1 [4],no detectable inhibitory activity
same,IC50,IRAP,> 200 µM
"CC(=O)N1CCN(C(=O)C(C)(C)NC(=O)Nc2ccc(C)cc2)CC1 [Compound 22, 1-(1-(4-Acetylpiperazin-1-yl)-2-methyl-1-oxopropan-2-yl)-3-(p-tolyl)urea]",IC50,IRAP,> 200 µM
"CC(=O)N1CCN(C(=O)C2(NC(=O)Nc3ccc(C)cc3)CC2)CC1 [Compound 23, 1-(1-(4-Acetylpiperazine-1-carbonyl)cyclopropyl)-3-(p-tolyl)urea]",IC50,IRAP,> 200 µM
